For `CCCC(=O)Oc1c[nH]c2cc(Cl)c(Br)cc12`, the melting point was 96 to 100 °C. Work on `CC(=O)Nc1ccc(O)cc1` yielded a melting point of 169 °C. `CC(=O)Oc1ccc(N/C=C2\C(=O)C3(C)CCC2C3(C)C)cc1` (stereo not given) showed a melting point of 222 °C. With `ON=C1CCCc2ccccc21` the melting point was 103 to 105 °C. In the case of `COc1ccc(C(=O)c2ccc(OC)c(OC)c2)cc1`, the melting point is reported as 79 °C. Molecule `C[C@]12CC[C@H]3[C@@H](CCC4CC(=O)CC[C@@]43C)C1=CCC2=O` (stereo not given in full) has a melting point of 151 °C. `CC(C)c1cc(Br)c(N)c(Br)c1` showed a melting point of 46 °C. `CCOC(=O)C(CO)(CO)C(=O)OCC` showed a melting point of 50 °C. Work on `CC(=O)c1nn2c(nc(=O)c3ccccc32)s1` yielded a melting point of 199 °C. For `NNc1cc(C(F)(F)F)cc(C(F)(F)F)c1`, the melting point was 82 °C. Molecule `O=C1C=C(NCc2ccc(Cl)c(Cl)c2)C(=O)c2ccccc21` has a melting point of 217 °C. For `NC(=S)c1ccccc1`, the melting point was 116 °C. With `O=C(NC(Cc1ccccc1)C(=O)O)OCc1ccccc1[N+](=O)[O-]` (stereo not given) the melting point was 140 to 142 °C. Molecule `O=C(O)c1cc(Cl)nnc1Cl` has a melting point of 139 °C. Work on `Cn1nc(C(F)(F)F)c(C=O)c1Cl` yielded a melting point of 41 to 42 °C. With `O=[N+]([O-])c1ccc(CN2CCOCC2)cc1` the melting point was 79.6 to 80 °C. `C=CCOC(=O)OCCOCCOC(=O)OCC=C` gave a melting point of -4 °C. `COC(=O)c1cocc1C(=O)OC` showed a melting point of 42 to 47 °C. With `Cn1nc(CCNC(=O)c2cc([N+](=O)[O-])cc([N+](=O)[O-])c2)c2c(N)ncnc21` the melting point was 281 °C. `O=C(O)C=C(F)C(F)(F)C(F)(F)C(F)(F)C(F)(F)C(F)(F)C(F)(F)C(F)(F)F` showed a melting point of 105 °C. `Cc1cc(C(C)(C)C)cc(C(C)(C)C)c1` gave a melting point of 32 °C. `CC(O)C1CC1` (stereo not given) showed a melting point of -32.1 °C. In the case of `C=C1C(=O)OC2CC(C)C3C=CC(=O)C3(C)C(O)C12` (stereo not given), the melting point is reported as 168 °C. Molecule `CC(C)CCCC(C)C1CCC2C3CC=C4CC(OC(=O)Cl)CCC4(C)C3CCC12C` (stereo not given) has a melting point of 118 °C. With `Cc1cc(-c2ccccc2)n2nc(C(F)(F)F)nc2n1` the melting point was 89 °C. `CC(C)(C)C(=O)OCC(N)=S` gave a melting point of 84 to 85 °C. For `NC(=O)Cc1cccc2ccccc12`, the melting point was 184 °C. `COc1cc(C(C)=O)ccc1F` gave a melting point of 52 to 54 °C. `CC12CCC3C(CCC4CC=CCC43C)C1CCC2=O` (stereo not given) showed a melting point of 104 °C. `O=C(O)CN(CCN(CC(=O)O)CC(=O)O)CC(=O)O` showed a melting point of 220 °C. For `CCCC(=O)Oc1c[nH]c2ccc(Br)c(Cl)c12`, the melting point was 91 to 93 °C. With `O=C(Nc1ccccc1)C(Cl)=NNc1ccccc1` the melting point was 159 to 161 °C. `Cc1nc2scc(-c3ccccc3)c2c(=O)n1NC(=O)c1ccc(Cl)cc1` gave a melting point of 235 to 236 °C. `N=C(c1ccccc1)c1ccccc1` gave a melting point of -30 °C. For `NNC(=S)NC1CCCCC1`, the melting point was 142 to 145 °C. `O=C(Cl)c1csc(-c2cccc(Cl)c2Cl)n1` showed a melting point of 108 to 111 °C. In the case of `CCCCCCCOC(C)=O`, the melting point is reported as -50.2 °C. `CC12CCC3C(CCC4CC(OCc5ccccc5)CCC43C)C1CCC2O` (stereo not given) gave a melting point of 225 °C. For `Cc1ccc(N=Nc2ccc(C)cc2)cc1`, the melting point was 140 °C. For `N[C@@H](Cc1cc(Br)c(O)c(Br)c1)C(=O)O`, the melting point was 245 °C. `O=Cc1coc2ccc(Cl)cc2c1=O` showed a melting point of 162 to 168 °C. Molecule `COC(=O)C1=C(C(=O)OC)CC2=C(CC3=C(C2)CC(C(=O)OC)=C(C(=O)OC)C3)C1` has a melting point of 260 to 262 °C. In the case of `Cc1cc(Cl)cc(Cl)c1CN`, the melting point is reported as 54 °C. `O=[N+]([O-])c1ccc(NN=Cc2cccc3c(Br)ccc([N+](=O)[O-])c23)c([N+](=O)[O-])c1` gave a melting point of 243 to 244 °C. `NC(=O)CC1(CC(=O)O)CCCCC1` showed a melting point of 140 to 145 °C. For `CCCC(NC(=O)C(C)N)C(=O)O` (mixture of isomers), the melting point was 240 to 242 °C. For `Nc1ccc(N)c2c1C(=O)c1cccc([N+](=O)[O-])c1C2=O`, the melting point was 257 °C. Work on `NC1CCC(c2ccccc2)CC1CO` (stereo not given) yielded a melting point of 116 to 122 °C. `COc1ccc2[nH]c3c(c2c1)CCNC3C` (stereo not given) showed a melting point of 150 °C. `CC(C)(C)OC(=O)N1CCN(Cc2ccc(C(=O)O)cc2)CC1` showed a melting point of 196 to 204 °C. `NC(=S)c1ccc(F)cc1F` showed a melting point of 131 °C. `Nc1nc(O)cc(C(F)(F)F)n1` gave a melting point of 290 °C. `O=C(Nc1ncc([N+](=O)[O-])s1)c1cccs1` gave a melting point of 256 °C. `O=C(O)C(F)(F)C(F)(F)C(F)(F)C(F)(F)C(F)(F)C(F)(F)C(F)(F)C(F)(F)C(F)(F)F` gave a melting point of 87.4 to 88.2 °C. `N#Cc1cc([N+](=O)[O-])ccc1-n1cccc1` showed a melting point of 96 to 98 °C. With `CC(C)(C)OC(=O)N1CCN(c2ccccc2CO)CC1` the melting point was 67 to 71 °C. Molecule `O=C1Cc2cc3c(cc21)OCO3` has a melting point of 126 °C. For `C=CC(C)(CCC=C(C)C)OC(C)=O` (stereo not given), the melting point was under 25 °C. In the case of `O=C(CBr)c1ccc(C(F)(F)F)cc1`, the melting point is reported as 45 to 46 °C. `Cc1cc(C(F)(F)F)c(C#N)c(=S)[nH]1` gave a melting point of 200 °C. `CS(=O)(=O)c1ccc(C#N)cc1` showed a melting point of 137 to 142 °C. With `Cc1cc(C)c(N=C=S)cc1C` the melting point was 22 to 24 °C. In the case of `CCCc1c(NCC)ccc(C(C)=O)c1O`, the melting point is reported as 45 to 48 °C. Molecule `CC1(C)CCCCC1O` (stereo not given) has a melting point of 8 °C. With `Cc1nc2ccccc2[nH]c(=O)c1=NNc1ccc(Cl)cc1` the melting point was 175 °C. `c1ccc2c(N=Nc3cccc4ccccc34)cccc2c1` gave a melting point of 190 °C. For `NN=C(C(=O)c1ccccc1)c1ccccc1`, the melting point was 147 to 151 °C. Work on `CCOC(=O)CCC(=O)O` yielded a melting point of 8 °C. `Cc1nc(-c2ccc(Br)s2)no1` gave a melting point of 54 to 55 °C. With `CCC(O)(CC)C1(C)CCC(C(=O)OC)C(C)(C)O1` (stereo not given) the melting point was 162 °C. `CC1=C[C@H](O)[C@H]2C[C@@H]1C2(C)C` showed a melting point of 70.8 °C. With `Cc1ccc(C)c(C(=O)N(NC(=O)c2ccccc2)C(C)(C)C)c1` the melting point was 198 °C. In the case of `O=C(O)Cc1ccc([N+](=O)[O-])cc1`, the melting point is reported as 154 °C. With `C=CC(=O)OCCCCCCCC(C)C` the melting point was -100 °C. For `CC(C)(C)OC(=O)NC(Cc1cccs1)C(=O)O` (stereo not given), the melting point was 71 to 76 °C. With `CCCCCCCCOCCCCCCCC` the melting point was -7.6 °C. With `CC1(C)CC(=O)C2=C(C1)Nc1ccc3ccccc3c1C2c1ccc(O)cc1` (stereo not given) the melting point was 314 °C. `COC(=O)CC[C@H](N)C(=O)O` gave a melting point of 182 °C. In the case of `O=C1c2ccc([N+](=O)[O-])cc2C(=O)N1CCCBr`, the melting point is reported as 104 to 107 °C. `Nc1c(C(=O)O)cccc1C(F)(F)F` showed a melting point of 157 to 160 °C. Work on `CC(=O)Oc1c(-c2cccc(-c3[nH]c4cc([N+](=O)[O-])ccc4c3OC(C)=O)c2)[nH]c2cc([N+](=O)[O-])ccc12` yielded a melting point of 304 °C. For `Oc1cccnc1O`, the melting point was 245 °C. For `Nc1ccc(C(=O)O)cc1[N+](=O)[O-]`, the melting point was 290 °C. `CC(=O)Nc1ccc(C2=NNC(=O)CC2)cc1` showed a melting point of 250 to 253 °C. Work on `NS(=O)(=O)c1cc2c(cc1Cl)N=C(CSCc1ccccc1)NS2(=O)=O` yielded a melting point of 232 °C. With `COc1ccc(CCNc2ccccc2N)cc1OC` the melting point was 78 to 80 °C. Work on `Cc1noc(-c2cccc(Br)c2)n1` yielded a melting point of 95 to 96 °C. `OCC(Br)=C(Br)CO` showed a melting point of 111 to 116 °C. In the case of `CC1(C)N=C(c2ccccc2)C=[N+]1[O-]`, the melting point is reported as 108 to 111 °C. `CC12CCC(C(=O)/C(=N\O)C1=O)C2(C)C` (stereo not given) gave a melting point of 109 °C.

— a melting point compilation (Tetko et al.)
